Patent publication US7385088B1, “Compounds from Antrodia camphorata” (Golden Biotechnology Corporation, priority 2007, dated 2008)
In brackets after ≈: the same amount, converted by molar mass.

Tests used:
Type in all cases: cell-based
[1] = tested on: MDA-MB-231; test: MTT survival assay, breast cancer cells MDA-MB-231; settings: Homo sapiens, estrogen-independent breast cancer cells, 48 hours
From the text: (§1) Therefore Antroquinonol B and Antroquinonol C can be used in inhibiting cancer cell growth of breast cancer, lung cancer, hepatic cancer, and prostate cancer, which can further be applied in cancer treatment of breast cancer, lung cancer, hepatic cancer, prostate cancer and the like. The details of the examples are described as follows: The NCI anti-cancer drug screen model was adopted to test the anti-cancer effect of the isolated compounds from example 1 in the present invention. The isolated Antroquinonol B and Antroquinonol C from example 1 were added into the culture media of human breast-cancer cells, MCF-7 or MDA-MB-231, to test for tumor cell survival. This survival assay was carried out with the widely known MTT (3-[4,5-dimethylthiazol-2-yl]2,5-diphenyltetrazolium bromide) assay. MCF-7 cell line is originated from primary breast cancer cells (early stage), sensitive to estrogen and therefore is estrogen-dependent, while MDA-MB-231 is insensitive to estrogen and therefore is estrogen-independent, which is a difficult tumor with a low survival rate. MTT assay is commonly used to determine cell proliferation, percent of viable cells, and cytotoxicity. […] The plates were read on an ELISA reader at wavelength of 570 nm to determine the survival rates.

[2] = tested on: A549; test: MTT survival assay, lung cancer cells A549; settings: Homo sapiens, 48 hours
From the text: Therefore Antroquinonol B and Antroquinonol C can be used in inhibiting cancer cell growth of breast cancer, lung cancer, hepatic cancer, and prostate cancer, which can further be applied in cancer treatment of breast cancer, lung cancer, hepatic cancer, prostate cancer and the like. The details of the examples are described as follows: MTT assay is commonly used to determine cell proliferation, percent of viable cells, and cytotoxicity. 3-[4,5-dimethylthiazol-2-yl]2,5-diphenyltetrazolium bromide (MTT) is a yellow dye, which can be absorbed by the living cells and be reduced to purplish blue formazan crystals by succinate tetrazolium reductase in mitochondria. Formazan formation can therefore be used to assess and determine the survival rate of cells. The NCI anti-cancer drug screen model was also employed to test the anti-lung cancer effect of the Antroquinonol B and Antroquinonol C in the present invention. The Antroquinonols isolated from example 1 were added into the culture media of human lung cancer cell A549 with the abovementioned MTT assay to analyze lung cancer cell survival rates. Human lung cancer cell A549 was obtained from the Bioresources Collection and Research Center (BCRC) of the Food Industry Research and Development Institute with an accession number of BCRC 60074. […] The plates were read on an ELISA reader at wavelength of 570 nm to determine the survival rates.

[3] = tested on: HepG2; test: MTT survival assay, hepatic cancer cells Hep G2; settings: Homo sapiens, 48 hours
From the text: (§2) Therefore Antroquinonol B and Antroquinonol C can be used in inhibiting cancer cell growth of breast cancer, lung cancer, hepatic cancer, and prostate cancer, which can further be applied in cancer treatment of breast cancer, lung cancer, hepatic cancer, prostate cancer and the like. The details of the examples are described as follows: MTT assay is commonly used to determine cell proliferation, percent of viable cells, and cytotoxicity. 3-[4,5-dimethylthiazol-2-yl]2,5-diphenyltetrazolium bromide (MTT) is a yellow dye, which can be absorbed by the living cells and be reduced to purplish blue formazan crystals by succinate tetrazolium reductase in mitochondria. Formazan formation can therefore be used to assess and determine the survival rate of cells. The NCI anti-cancer drug screen model was employed to test the anti-cancer effect of the Antroquinonol B and Antroquinono C in the present invention. The Antroquinonos isolated from example 1 were added into the culture media of human hepatic-cancer cells, Hep 3B or Hep G2, for tumor cell survival assay. Hepatic-cancer cells Hep 3B (BCRC 60434) and Hep G2 (BCRC 60025), were obtained from the Bioresources Collection and Research Center (BCRC) of the Food Industry Research and Development Institute. […] The plates were read on an ELISA reader at wavelength of 570 nm to determine the survival rates.

[4] = tested on: MCF-7; test: MTT survival assay, breast cancer cells MCF-7; settings: Homo sapiens, MCF7, estrogen-dependent breast cancer cells, 48 hours
From the text: as §1

[5] = tested on: Hep3B; test: MTT survival assay, hepatic cancer cells Hep 3B; settings: Homo sapiens, 48 hours
From the text: as §2

[6] = tested on: LNCaP; test: MTT survival assay, prostate cancer cells LNCaP; settings: Homo sapiens, androgen-dependent prostate cancer cells, 48 hours
From the text: (§3) Therefore Antroquinonol B and Antroquinonol C can be used in inhibiting cancer cell growth of breast cancer, lung cancer, hepatic cancer, and prostate cancer, which can further be applied in cancer treatment of breast cancer, lung cancer, hepatic cancer, prostate cancer and the like. The details of the examples are described as follows:
(§4) MTT assay is commonly used to determine cell proliferation, percent of viable cells, and cytotoxicity. 3-[4,5-dimethylthiazol-2-yl]2,5-diphenyltetrazolium bromide (MTT) is a yellow dye, which can be absorbed by the living cells and be reduced to purplish blue formazan crystals by succinate tetrazolium reductase in mitochondria. Formazan formation can therefore be used to assess and determine the survival rate of cells.
(§5) The NCI anti-cancer drug screen model was also employed to test the anti-cancer effect of the Antroquinonols in the present invention. Antroquinonol B and Antroquinonol C isolated from example 2 were added into the culture media of human prostate cancer cells, LNCaP or DU-145, and prostate cancer cell survival rates were analyzed with the abovementioned MTT assay. […]
(§6) The human prostate-cancer cells, LNCaP and DU-145, were cultivated in media containing fetal calf serum for 24 hours. […] The plates were read on an ELISA reader at wavelength of 570 nm to determine the survival rates.

[7] = tested on: DU-145; test: MTT survival assay, prostate cancer cells DU-145; settings: Homo sapiens, androgen-independent prostate cancer cells, 48 hours
From the text: as §3, §4, §5, §6

| SMILES | IC50 [1] [µg/mL] | IC50 [2] [µg/mL] | IC50 [3] [µg/mL] | IC50 [4] [µg/mL] | IC50 [5] [µg/mL] | IC50 [6] [µg/mL] | IC50 [7] [µg/mL] |
| --- | --- | --- | --- | --- | --- | --- | --- |
| COC1=C(OC)[C@H](O)[C@H](C/C=C(\C)CC/C=C(/C)C/C=C/C(C)(C)O)[C@@H](C)C1=O [Antroquinonol B] | 8.72 (≈ 21.4 µM) | 11.9 (≈ 29.3 µM) | 3.32 (≈ 8.17 µM) | 1.94 (≈ 4.77 µM) | 1.21 (≈ 2.98 µM) | 5.67 (≈ 13.9 µM) | 10.1 (≈ 24.9 µM) |
| COC1=C(OC)[C@H](O)[C@H](C/C=C(\C)CC/C=C(/C)C/C=C/C(C)(C)OC)[C@@H](C)C1=O [Antroquinonol C] | 21.9 (≈ 52.1 µM) | 8.21 (≈ 19.5 µM) | 5.12 (≈ 12.2 µM) | 1.17 (≈ 2.78 µM) | 1.32 (≈ 3.14 µM) | 8.72 (≈ 20.7 µM) | 12.2 (≈ 29 µM) |
